In patent publication US20050202423A1, “Method for identifying compounds or lead structures against rna target motifs and rna/protein interactions” (priority 2000, published 2005):
Where two headings read alike, the source gives them in different places.

Experiments:
reverse transcriptase = reverse transcriptase (Human immunodeficiency virus type 1 group M subtype B, UniProt P04585); assay: Standard transcriptase assay (specificity control); format: biochemical, HIV-1; conditions: 2.5 μM
Description: As a control of the target protein reverse transcriptase, another nucleic acid binding protein from HIV-1 was tested, to check the specificity of the identified Rev-binding antibiotics.

Rev protein [1] = target: T1, Rev protein (Human immunodeficiency virus type 1 group M subtype B, UniProt P04618); assay: Surface plasmon resonance, Rev protein; format: binding, HIV; conditions: 100 μM antibiotic, 25° C.
T1 construct: the intact Rev protein and by the Rev peptide
Description: (§1) 20 μl 100 μM antibiotic in test buffer was injected at 25° C., rate 10 μl/s.
(§2) Surface plasmon resonance studies were performed with a Biocore 3000 instrument in the automatic mode.

Rev peptide / AIR = target: T2, Rev peptide / AIR (Human immunodeficiency virus type 1 group M subtype B, UniProt P04618); assay: AIR screen (screen 2) of antibiotics: inhibition of Rev-activated AIR; format: biochemical, HIV; conditions: for AIR screen outcome (inhibition of AIR relative to HHR): 100 μM antibiotic, 250 nM Rev peptide
T2 construct: includes aminoacids 34 to 50 of the Rev protein
Description: (§3) Cleavage reactions with multiple turnover were performed at 32° C. in a test buffer containing 50 mM Tris (pH 7.9) and 25 mM NaCl. The total volume of the reactions was 50 μl in plates with 96 flat bottom wells. The fluorescence measurements were performed at an excitation wavelength of 489 nm, FAM emission at 520 nm and with the fluorescence detector Ascent Fluoroscan FL, as described by Jenne, A. et al., Rapid identification and characterization of hammerhead-ribozyme inhibitors using fluorescence-based technology, Nat Biotechnol 19, 56-61 (2001). Ribozyme (10 nM) and FRET-labeled substrate (200 nM) were first incubated in test buffer at room temperature for 5 min, followed by optional addition of Rev and/or antibiotic. The reactions were then incubated for 5 min at 32° C. and started by the addition of MgCl2 to a final concentration of 8 mM, using the dispensing function of the fluorometer. Negative controls were always included for reactions without ribozyme and were subtracted after the measurements.
(§4) Two different screening experiments were performed, one using the RRR reporter construct and the other using AIR. […] Each reaction which contained antibiotics also contained Rev peptide. For each antibiotic, three different reactions were performed: HHR, reporter construct (RRR or AIR), negative controls, which only contained antibiotic and Rev and substrate. The antibiotic concentrations were 100 μM in each case. After subtraction of the negative control, the rise in fluorescence in the first five minutes, corresponding to the initial rate of reaction, was divided by the rise in fluorescence in the standard reaction without antibiotic, containing the active state of the ribozyme (see also FIG. 10).
[…]. […] […].

RRR = assay: Dependence of RRR cleavage activity on Rev (FRET ribozyme reaction); format: biochemical; conditions: for IC50: read-out: K inh (inhibition of RRR at the half maximal concentration of Rev)
Description: (§5) Negative control reactions without ribozymes were subtracted.
as §3

AIR = assay: Dependence of AIR cleavage activity on Rev (FRET ribozyme reaction); format: biochemical; conditions: for EC50: read-out: Kact (activation of AIR)
Description: as §5, §3

hammerhead ribozyme HHR = assay: HHR cleavage reaction (internal control, FRET); format: biochemical
Description: as §3, §4

Rev peptide = target: T3, Rev peptide (Human immunodeficiency virus type 1 group M subtype B, UniProt P04618); assay: Surface plasmon resonance, Rev peptide; format: binding, HIV; conditions: 100 μM antibiotic, 25° C.
T3 construct: includes aminoacids 34 to 50 of the Rev protein
Description: as §1, §2

RRR-RNA = assay: Surface plasmon resonance, RRR-RNA surface; format: binding; conditions: 100 μM antibiotic, 25° C.
Description: 20 μl 100 μM antibiotic in test buffer was injected at 25° C., rate 10 μl/s. […] There is no binding to RRR-derivatized surfaces detectable. Coumermycin only binds to Rev, but not to ribozymes. FIG. 13b illustrates the interaction between novobiocin, rosamicin, griseofulvin, streptolydigin and patulin with surfaces derivatized with Rev protein.
Surface plasmon resonance studies were performed with a Biocore 3000 instrument in the automatic mode. Rev protein and peptide surfaces were prepared by injection of 100 μM solutions in 60 mM NaOAc, pH 5.7 on EDC/NHS-activated CM5-Chips, which gave 1800 RU immobilized peptide and 5000 RU protein.

Rev peptide / RRR = target: T4, Rev peptide / RRR (Human immunodeficiency virus type 1 group M subtype B, UniProt P04618); assay: RRR screen (screen 1) of antibiotics: restoration of cleavage activity; format: biochemical, HIV; conditions: 100 μM, 1 μM Rev-peptide
T4 construct: includes aminoacids 34 to 50 of the Rev protein
Description: as §3, with “Negative controls were always included for reactions without ribozyme and were subtracted after the measurements.” left out
Two different screening experiments were performed, one using the RRR reporter construct and the other using AIR. […] After subtraction of the negative control, the rise in fluorescence in the first five minutes, corresponding to the initial rate of reaction, was divided by the rise in fluorescence in the standard reaction without antibiotic, containing the active state of the ribozyme (see also FIG. 10). […]

Rev protein [2] = target: T5, Rev protein (HIV-1, UniProt P04618 P04618:1-116); assay: competition; 2 uM RNA competes with IRK-1 for 200 nM Rev; 10 mM HEPES pH 7.4, 100 mM NaCl, 10 mM MgCl2; conditions: tags: full-length
Rev protein [3] = target: Rev protein (HIV-1, UniProt P04618 P04618:1-116); assay: inhibition; K inh of ribozyme; 8 mM MgCl2, 32 C; conditions: tags: full-length; label: biotin (SPR surface) or 5'-32P (filter); hammerhead ribozyme
Rev protein [4] = target: T5, Rev protein; assay: cleavage_in_vitro; K act of ribozyme; 8 mM MgCl2, 32 C; conditions: tags: full-length

Molecule: Nc1ccn([C@H]2CC[C@@H](COP(=O)(O)OP(=O)(O)OP(=O)(O)O)O2)c(=O)n1 [ddCTP]
- inhibition of reverse transcriptase (reverse transcriptase): total inhibition

Molecule: COC1=CC(=O)C[C@@H](C)[C@]12Oc1c(Cl)c(OC)cc(OC)c1C2=O [griseofulvin]
- binding to surface derivatized with Rev protein (Rev protein [1]): Only the antibiotics novobiocin and patulin, which were identified in the course of screening, exhibited binding to Rev

Molecule: C=C(NC(=O)c1csc(-c2nc3c(cc2O)-c2nc(cs2)C(=O)NC(C(C)O)C(=O)N/C(=C\C)c2nc(cs2)C(=O)NC2CC(O)C(=O)OCc4cccc5[nH]c(c(C)c45)C(=O)SCC(NC(=O)c4csc2n4)c2nc-3cs2)n1)C(N)=O (centres unmarked) [nosiheptide]
- AIR screen outcome (inhibition of AIR relative to HHR) (Rev peptide / AIR): Rev inhibitors

Molecule: CO[C@@H]1[C@@H](OC(N)=O)[C@@H](O)[C@H](Oc2ccc3c(O)c(NC(=O)c4ccc(O)c(CC=C(C)C)c4)c(=O)oc3c2C)OC1(C)C [novobiocin]
- binding to surface derivatized with Rev protein (Rev protein [1]): exhibited binding

Molecule: O=C1C=C2C(=CCOC2O)O1 (centres unmarked) [patulin]
- binding to surface derivatized with Rev protein (Rev protein [1]): exhibited binding
- AIR screen outcome (inhibition of AIR relative to HHR) (Rev peptide / AIR): Rev inhibitors

Molecule: CC[C@H]1OC(=O)C[C@@H](O)[C@H](C)[C@@H](O[C@@H]2O[C@H](C)C[C@H](N(C)C)[C@H]2O)[C@@H](CC=O)C[C@@H](C)C(=O)/C=C/[C@]2(C)O[C@H]2[C@@H]1C [rosamicin]
- binding to surface derivatized with Rev protein (Rev protein [1]): Only the antibiotics novobiocin and patulin, which were identified in the course of screening, exhibited binding to Rev

Molecule: CNC(=O)[C@@H](C)[C@H]1C(=O)/C(=C(O)/C=C/C(C)=C/[C@@H](C)[C@H]2O[C@@]3(C)O[C@H](C=C[C@@]34CO4)[C@@H]2C)C(=O)N1[C@@H]1CC[C@H](O)[C@H](C)O1 [streptolydigin]
- binding to surface derivatized with Rev protein (Rev protein [1]): Only the antibiotics novobiocin and patulin, which were identified in the course of screening, exhibited binding to Rev

Molecule: Rev peptide: Rev peptide, which includes aminoacids 34 to 50 of the Rev protein (TRQARRNRRRRWRERQR; UniProt P04618 34-50, looked up, fragment)
- effect of Rev on ribozyme RRR (RRR; 1 μM Rev-peptide): inhibition
- IC50 (RRR; Rev peptide): 0.464 µM
- concentration above which AIR is inhibited (AIR): above 800 nM
- effect of Rev on AIR (AIR; 250 nM Rev): activation
- EC50 (AIR): 0.17 µM
- concentration above which HHR is inhibited (hammerhead ribozyme HHR): more than 1 μM
- initial activity of HHR (hammerhead ribozyme HHR; 1 μM Rev): 93%
- effect of Rev on wildtype HHR (hammerhead ribozyme HHR; 1 μM Rev-peptide): hardly affected
- concentration above which HHR is inhibited (hammerhead ribozyme HHR; listed as Rev): above 1 μM

Molecule: Rev protein: intact Rev protein of HIV
- concentration above which RRR is inhibited (RRR): above 1 μM
- IC50 (RRR; Rev protein): 1.7 µM
- concentration at which AIR is still activated (AIR): above 5 μM
- inhibition of AIR by high concentrations (AIR): no observed inhibition
- EC50 (AIR): 0.192 µM

Molecule: coumermycin A1
- binding to surface derivatized with Rev protein (Rev protein [1]): binding
- binding to surface derivatized with Rev peptide (Rev peptide): binding
- binding to RRR-derivatized surface (RRR-RNA): no binding
- effect on wildtype HHR (hammerhead ribozyme HHR; 100 μM with 1 μM Rev-peptide): hardly affected
- reversal of the action of Rev on RRR (Rev peptide / RRR): fully reversed
- AIR screen outcome (inhibition of AIR relative to HHR) (Rev peptide / AIR): Rev inhibitors
- reversal of the action of Rev on AIR (Rev peptide / AIR; 100 μM, 250 nM Rev): fully reversed

Molecule: GGGAGGUGGACUCCAGCUUCGGCUGUUGAGAUACACC (ssRNA) [Seq 5]
- binding result (Rev protein [2]): binds

B1: RRR (Rev-responsive ribozyme, RBE in stem II) (ssRNA)
RNA: GGGUCCUCUGAUGAGCUCUGGGCGCAGCUUCGGCUGACGGUACUUGCGAAACUCGU
- apparent K (half saturation) (Rev protein [3]): 1700 nM

B2: AIR (aptamer-inhibited ribozyme) (ssRNA)
RNA: GGGACUCGCUUCGGCUUGAGAUACCAAAAAGGGUCCUCUGAUGAGGCCGUUAGGCCGAAACUCGU
- apparent K (half saturation) (Rev protein [4]): 192 nM
